The values below come from patent US20250263370A1 (Tay Therapeutics Limited, priority 2022, published 2025).

In brackets after ≈: the same amount, converted by molar mass. Several values for one entry are separate records, joined by “and”; a condition that tells them apart may be missing. Equal values may be shown once. Read-outs that look alike come from different tables or passages of the source.

In series [1] the test system is Col1a1, TGF-b1, MCP-1, IL-1b, IL-6, IL-17, TNF-a, and Timp1. Description: Tissue biomarker mRNA by RT-PCR in ligated kidney of UUO rats. The class given is in vivo, rat. The text has this: Serum for blood biochemistry analysis was collected into centrifuge tubes without coagulant four hours after final dosing. Blood plasma samples from group 3 was collected into tubes with K2EDTA four hours after final dosing. At the conclusion of the study (end of the 14-day period), animals were euthanized. Kidney tissue was collected four hours after final dosing. Ligated side kidney was divided into three copies ⅓ fix into 10% formalin for H&E analysis, ⅓ into RNA for PCR analysis of tissue biomarkers Col1a1, TGF-b1, MCP-1, IL-1b, IL-6, IL-17, TNF-a, and Timp1, and ⅓ for hydroxyproline assay analyzed by ELISA. RNA was extracted from tissue using the RNeasy mini kit (Qiagen). RNA concentration was measured using a NanoDrop One Spectrophotometer (ThermoFisher) and converted to cDNA using a High-Capacity RNA-to-cDNA kit (Invitrogen). RT-PCR was performed to measure levels of mRNA of different targets using TaqMan® Gene Expression Master Mix and TaqMan® probe/primer sets on a QuantStudio 6, Real-Time PCR System (ThermoFisher). Fold change in target gene expression was determined using the ΔΔCt method.

Another series concerns CXCL10. Briefly: CXCL10 levels by ELISA in IFN-γ stimulated human peripheral blood mononuclear cells. The class given is cell-based. Conditions: human PBMC. The procedure: The impact of Examples 23, 80, and 101 on IL-17A, IL-22, and CXCL10 levels was analyzed in cryopreserved human peripheral blood mononuclear cells (PBMC) by ELISA. […] For IL-17A and IL-22 assays, Examples 23, 80, and 101 were serially diluted from 10 mM in DMSO and further diluted in assay media to 100× the required final concentration, of which, 2 μL was added per well to a round-bottom 96-well tissue culture plate where the final DMSO concentration per well was 0.1%. CD2, CD3, and CD28 antibody-coated beads from the T-cell activation/expansion kit (Miltenyi Biotec) were added to the PBMC at a bead-to-cell ratio of 1:2.
The mixture of PBMCs and beads were seeded into the wells of the round-bottom 96-well plate at a concentration of 2×10^5 cells/well in a total volume of 200 μL. The cells were cultured for 72 hours at 37° C. and 5% CO2 and then supernatants were collected and IL-17A and IL-22 levels were measured by ELISA. For the CXCL10 assay, Examples 23, 80, and 101 were serially diluted from 10 mM in DMSO and further diluted in assay media to 100× the required final concentration, of which 2 μL was added per well to a 96-well tissue culture plate. The final compound concentration ranged from 30,000 nM to 0.005 nM and the final DMSO concentration per well was 0.3%. PBMCs were seeded at approximately 2×10^5 cells/well in the wells of the 96-well tissue culture plate in a total volume of 190 μL. The plate was incubated for 1 hour at 37° C. and 5% CO2. The cells were then stimulated with IFN-γ (15 ng/mL final concentration) in a volume of 10 μL. The cells were then cultured for 24 hours at 37° C. and 5% CO2. The supernatant was collected and CXCL10 levels were measured by ELISA.
For orientation: ELISA stands for enzyme-linked immunosorbent assay.

The nature of series [2]: Thermodynamic solubility in FaSSIF pH 6.5 buffer. The class given is physicochemical. Conditions: FaSSIF buffer, 25 °C, pH 6.5, fassif, thermodynamic from solid, Method 1 (UV-vis, 25° C., 24 hrs).
Setting [3] is: Test Subject 1, read-out: CXCL10 IC50.
Setting [4] is: Test Subject 2, read-out: CXCL10 IC50.
Where [5] appears, read: Test Subject 3, read-out: CXCL10 IC50.
[6] abbreviates: mean of test subjects, read-out: CXCL10 IC50 Mean.

What is called IC50 is the midpoint of a concentration-inhibition curve. By thermodynamic solubility is commonly meant the concentration in solution at equilibrium with solid. For the molecule `CNC(=O)c1[nH]c(C(=O)NC2CCC2)cc1O[C@@H](C)c1ccccc1` (stereo in doubt) [Example 101, N^5-cyclobutyl-N^2-methyl-3-(1-phenylethoxy)-1H-pyrrole-2,5-dicarboxamide], in series [1] (30 mg/kg BID, kidney), the “Col1a1 tissue RNA level relative to UUO + vehicle” value is reported as “reduced levels”, the “IL-1b tissue RNA level relative to UUO + vehicle” value was “reduced levels”, the “IL-6 tissue RNA level relative to UUO + vehicle” value was “reduced levels” and the “MCP-1 tissue RNA level relative to UUO + vehicle” value was “reduced levels”. Also, in series [1] (30 mg/kg BID, kidney), the “TGF-b1 tissue RNA level relative to UUO + vehicle” value is “reduced levels”, the “Timp1 tissue RNA level relative to UUO + vehicle” value is “reduced levels”, the “expression of IL-17 relative to UUO + vehicle” value is “limited effect” and the “expression of TNF-α relative to UUO + vehicle” value is given as “limited effect”. For the same molecule, in series [1] (30 mg/kg, individual animals), the “Col1a1 RNA level, Normalized Fold Change” value is 0.67 and 0.33 and 0.21 and 0.55 and 0.28 and 0.41 and 0.86 and 0.69; the “IL-1b RNA level, Normalized Fold Change” value is 0.43 and 0.18 and 0.29 and 0.69 and 0.55 and 0.27 and 0.56 and 0.67; the “IL-6 RNA level, Normalized Fold Change” value was 0.06 and 0.05 and 0.03 and 0.33 and 0.12 (2×) and 0.26 and 0.07; the “IL-17 RNA level, Normalized Fold Change” value is 0.79 and 0.22 and 0.24 and 2.09 and 1.81 and 0.54 and 0.70 and 0.94. In series [1] (30 mg/kg, individual animals), the “MCP-1 RNA level, Normalized Fold Change” value is 0.34 and 0.26 and 0.32 and 0.53 and 0.42 and 0.27 and 0.68 and 0.61; the “TGF-b1 RNA level, Normalized Fold Change” value was 0.63 and 0.44 and 0.35 and 0.81 and 0.52 and 0.50 and 0.90 and 0.85; the “TNF-a RNA level, Normalized Fold Change” value is 0.90 and 0.48 and 0.32 and 1.53 and 1.00 and 0.69 and 0.94 and 1.55; the “Timp1 RNA level, Normalized Fold Change” value is 0.65 and 0.41 and 0.44 and 0.71 and 0.54 and 0.56 and 0.94 and 0.97. Besides, in series [1] (group mean, N 8), the “Col1a1 RNA level, Normalized Fold Change (Mean + SEM)” value was 0.50; the “IL-1b RNA level, Normalized Fold Change (Mean + SEM)” value was 0.46; the “IL-6 RNA level, Normalized Fold Change (Mean + SEM)” value was 0.13; the “IL-17 RNA level, Normalized Fold Change (Mean + SEM)” value was found to be 0.92. Further, in series [1] (group mean, N 8), the “MCP-1 RNA level, Normalized Fold Change (Mean + SEM)” value was found to be 0.43; the “TGF-b1 RNA level, Normalized Fold Change (Mean + SEM)” value is listed as 0.63; the “TNF-a RNA level, Normalized Fold Change (Mean + SEM)” value is listed as 0.93; the “Timp1 RNA level, Normalized Fold Change (Mean + SEM)” value was 0.65. Also, the “selectivity to induction of CXCL10 relative to IL-17A and IL-22” value in the series on CXCL10 was “showed selectivity to induction of CXCL10 relative to IL-17A and IL-22”. For the same molecule, the “IC50 for CXCL-10 relative to GSK620” value with CXCL10 (IFN-γ, 24 hours) is recorded as “substantially lower IC50”. Besides, the half-maximal inhibitory concentration (IC50) in the series on CXCL10 (setting [3]) is greater than 30 µM. Moreover, the 50% inhibitory concentration (IC50) with CXCL10 (setting [4]) is greater than 30 µM. In the series on CXCL10 (setting [5]), the IC50 was greater than 30 µM. The IC50 in the series with CXCL10 (setting [6]) was greater than 30 µM. The thermodynamic solubility at 24 h in series [2] was determined as 193 µM (≈ 65.9 µg/mL).

`CNC(=O)c1cc(C(=O)NC2CC2)cn(Cc2ccccc2)c1=O` [GSK620]: the IC50 in the series on CXCL10 (setting [3]), in the series with CXCL10 (setting [4]), in the series with CXCL10 (setting [5]) and with CXCL10 (setting [6]) was greater than 30 µM in each case.
